{
  "source": "patent US20060167109A1",
  "about": "“Methods of reducing rhinovirus contagion and related compositions” (priority 2002, published 2006)",
  "key": {"[1]": {"test_system": "human adenovirus, type 5 (HAdV-5)", "experiment": "Virus cytopathic effect assay for other viruses", "assay_type": "cell-based", "conditions": "Human mastadenovirus C, HeLa", "procedure": "(§1) The sensitivity of non-picornaviruses to pleconaril was determined in virus cytopathic effect assays similar to the HRV assay for the following viruses: respiratory syncytial virus, strain Long (RSV-A) and herpes simplex virus type II, strain Curtis (HSV-2) on HEp2 cells; influenza virus, strain WSN (FLUA) on MDBK cells; dengue virus type 2, strain New Guinea (DEN-2), and measles virus, strain Edmonston (MeV) on Vero cells; human adenovirus, type 5 (HAdV-5) on HeLa cells (at 33° C.); human coronavirus, strain 229E (Corona) on MRC-5 cells (at 33° C.); and mumps virus, strain Enders (Mumps), reovirus type 1, strain Lang (REOV-1), and parainfluenza virus type 3, strain C243 (HPIV-3) on LLC-MK2d cells. All specificity assays were performed at 37° C. and 5% CO2 except where noted above."}, "[2]": {"test_system": "human coronavirus, strain 229E (Corona)", "experiment": "Virus cytopathic effect assay for other viruses", "assay_type": "cell-based", "conditions": "Human coronavirus 229E, MRC5; Corona on MRC-5 cells at 33° C.", "procedure": "as §1"}, "[3]": {"test_system": "influenza virus, strain WSN (FLUA)", "experiment": "Virus cytopathic effect assay for other viruses", "assay_type": "cell-based", "conditions": "unidentified influenza virus, MDBK", "procedure": "as §1"}, "[4]": {"test_system": "measles virus, strain Edmonston (MeV)", "experiment": "Virus cytopathic effect assay for other viruses", "assay_type": "cell-based", "conditions": "Measles morbillivirus, Vero", "procedure": "as §1"}, "[5]": {"test_system": "mumps virus, strain Enders (Mumps)", "experiment": "Virus cytopathic effect assay for other viruses", "assay_type": "cell-based", "conditions": "Mumps orthorubulavirus", "procedure": "as §1"}, "[6]": {"test_system": "parainfluenza virus type 3, strain C243 (HPIV-3)", "experiment": "Virus cytopathic effect assay for other viruses", "assay_type": "cell-based", "conditions": "Human respirovirus 3", "procedure": "as §1"}, "[7]": {"test_system": "reovirus type 1, strain Lang (REOV-1)", "experiment": "Virus cytopathic effect assay for other viruses", "assay_type": "cell-based", "conditions": "Mammalian orthoreovirus 1", "procedure": "as §1"}, "[8]": {"test_system": "respiratory syncytial virus, strain Long (RSV-A)", "experiment": "Virus cytopathic effect assay for other viruses", "assay_type": "cell-based", "conditions": "human respiratory syncytial virus, HEp-2", "procedure": "as §1"}, "human plasma proteins": {"test_system": "human plasma proteins", "experiment": "Plasma protein binding", "assay_type": "in vitro ADME"}, "HRV, four serotypes": {"test_system": "HRV, four serotypes", "experiment": "Virus yield reduction assay, single cycle of growth", "assay_type": "cell-based, human rhinovirus", "conditions": "all four viruses, nontoxic drug concentrations, MOI 1, 12 hours", "procedure": "To assess the inhibition by pleconaril of HRV production from a single cycle of virus replication, virus yield experiments were performed. Cells were infected at a multiplicity of infection (MOI) of 1 infectious virion per cell with virus that had been pre-treated with pleconaril at various drug concentrations. After 12 hours of infection (a single replication cycle), the amount of virus produced was quantified. Pleconaril inhibited virus production in a concentration dependent manner. The yield of progeny virus was reduced by >99% for all four viruses at nontoxic drug concentrations.\nVirus was pretreated with various concentrations of pleconaril for 1 hour at 4° C. Confluent, 1-day-old monolayers of Hela (WIS) cells in 6 well plates were infected with virus at a multiplicity of infection (MOI) of approximately 1 plaque-forming unit per cell. After a 1 hour attachment period at 33° C., the inoculum was removed, the monolayers were washed 3 times with Dulbeccos modified phosphate buffer (DPBS)(JRH Biosciences, Lenexa, Kans.) and overlaid with 3 ml of media containing either the appropriate concentration of pleconaril or drug solvent (0.25% DMSO) alone. Incubation was continued for 12 hours at 33° C. and 2.5% CO2. All plates were frozen/thawed 3 times at −80° C. prior to quantification of virus yield in the virus cytopathic effect assay."}, "HRV3": {"test_system": "HRV3", "experiment": "Uncoating inhibition", "assay_type": "cell-based, human rhinovirus", "conditions": "2 μM, 2 hours at 33° C.", "procedure": "Following attachment to susceptible cells, rhinoviruses are endocytosed and disassembled or uncoated in order to release the viral RNA for subsequent gene expression and RNA replication. To determine if pleconaril affected the uncoating stage of the virus infection cycle, two types of experiments were carried out. In the first approach, an experiment was conducted to follow directly the fate of intact ^35S-radiolabeled (156S) virions attached to cells that were then allowed to proceed through virion disassembly (uncoating) in either the absence or presence of pleconaril. HRV3 virus was chosen for this experiment, as it is representative of the respective genera, and because binding of pleconaril was fully reversible with dilution, minimizing the possibility of drug carryover issues.\nAfter virion attachment, either pleconaril (2 μM) or DMSO control solution was added to the cultures. After an additional 1 hour, the culture was shifted to 33° C., a temperature that permitted virus uncoating. After 2 hours, cell lysates were prepared and the amount of intact 156S virions was assessed by sedimentation of the lysates on continuous sucrose density gradients. […]"}, "[9]": {"experiment": "Pleconaril concentration in nasal mucus, clinical studies 843-043 and 843-044", "conditions": "diluted samples, individual subjects", "protocol": "Two hundred (200) μl of acetonitrile was added to 200 μl of each nasal mucus standard and sample. The samples and standards were vortex mixed and then centrifuged at 25° C. for 10 minutes at 2500 rpm. 170 μl of supernatant was removed from each standard and sample. Then, 30 μl of water was added. The mixture was vortex mixed and 40 μl was injected for quantitative analysis of pleconaril.\nStandards and samples were analyzed via LC/MS/MS. • Mass Spec: Micromass Quattro • LC: Alliance 2790 • Mobile Phase: 85% Acetonitrile/15% 2 mM Ammonium Acetate (0.2% formic acid) • Flow Rate: 0.5 ml/min • Analytical Column: Luna C18 (2) 5μ, 50×3.00 mm (Phenomenex) • Source: ESI (Electrospray Ionization) • Ion Mode: Positive • MRM transition: 382>82\nThe Masslyns quantitation package was used to analyze the results. The method used was a linear (1/× weighted) external standard method of calibration.\nStudies 843-043 and 843-044 were Phase III clinical trials for the acute treatment of viral respiratory infection (common cold) in which pleconaril was administered for five days (400 mg TID). These samples were selected based on the plasma concentrations measured on Day 3 of 6 (plasma concentrations at or above 1 μg/ml).\nNasal mucus samples were diluted with 2 ml of transport media during processing and prior to quantitative analysis."}},
  "note": "Where “and” joins values, the source holds several entries; their conditions need not be identical. Equal values may be shown once.",
  "data": [
    {"smiles": "Cc1cc(CCCOc2c(C)cc(-c3noc(C(F)(F)F)n3)cc2C)on1", "note": "[pleconaril, 3-[3,5-dimethyl-4-[3-(3-methyl-5-isoxazolyl)propoxy]phenyl]-5-(trifluoromethyl)-1,2,4-oxadiazole]", "values": [
      {"measurement": "IC50", "setting": "[1]", "value": "> 12.5", "unit": "µM"},
      {"measurement": "IC50", "setting": "[2]", "value": "> 12.5", "unit": "µM"},
      {"measurement": "IC50", "setting": "[3]", "value": "> 12.5", "unit": "µM"},
      {"measurement": "IC50", "setting": "[4]", "value": "> 12.5", "unit": "µM"},
      {"measurement": "IC50", "setting": "[5]", "value": "> 12.5", "unit": "µM"},
      {"measurement": "IC50", "setting": "[6]", "value": "> 12.5", "unit": "µM"},
      {"measurement": "IC50", "setting": "[7]", "value": "> 12.5", "unit": "µM"},
      {"measurement": "IC50", "setting": "[8]", "value": "> 12.5", "unit": "µM"},
      {"measurement": "protein bound", "setting": "human plasma proteins", "value": "> 99", "unit": "%"},
      {"measurement": "reduction of yield of progeny virus", "setting": "HRV, four serotypes", "value": "> 99", "unit": "%"},
      {"measurement": "reduction in the amount of attached intact 156S virions (uncoating)", "setting": "HRV3", "value": "minimal reduction"},
      {"measurement": "Pleconaril Concentration (Nasal Mucus)", "setting": "[9]; Study 43, Day 3, 400 mg TID for five days", "value": "26.36 ng/mL and 10.22 ng/mL and 2.46 ng/mL and 1.20 ng/mL"},
      {"measurement": "Pleconaril Concentration (Nasal Mucus)", "setting": "[9]; Study 43, Day 6, 400 mg TID for five days", "value": "BQL and 2.21 ng/ml and 33.93 ng/ml and 79.38 ng/ml"},
      {"measurement": "Pleconaril Concentration (Nasal Mucus)", "setting": "[9]; Study 44, Day 3, 400 mg TID for five days", "value": "BQL and 23.88 ng/ml and 2.51 ng/ml and 6.98 ng/ml"},
      {"measurement": "Pleconaril Concentration (Nasal Mucus)", "setting": "[9]; Study 44, Day 6, 400 mg TID for five days", "value": "1.77 ng/mL and 2.43 ng/mL"},
      {"measurement": "concentration at 6 day", "setting": "[9]; human, nasal mucus, oral, 400 mg TID, Pleconaril Concentration (Nasal Mucus), Study 44, Day 6, 400 mg TID for five days", "value": 1.68, "unit": "ng/mL"}
    ]}
  ]
}
